The numbers were not newly measured in article PMC11998001, “Towards P2X4 Positron Emission Tomography Tracing” (Journal of Medicinal Chemistry, 2025), which cites them from elsewhere.

Series [1] relates to NLRP3 Inflammasome in macrophages. Also on record: method as in PMID 39805099.
The conditions of series [2]: pH 7.4.
The conditions of series [3]: for MLM stability: mouse, microsomes, 1.5 h.
For series [4] the following is noted: for blood-brain barrier (BBB) permeation of radioligand (in words): in vivo, 18F-radiolabeled form.
On the set-up of series [5]: method as in PMID 33125712.
Series [6] has as its system tactile allodynia. Also on record: method as in PMID 33125712.
Series [7] has as its system hP2X4R.

As for `Cc1ccc(S(=O)(=O)N2c3ccccc3Oc3ccccc32)cc1` [PSB-12062], the “water solubility (in words)” value was “more water-soluble than the first”.

For the compound `Cc1cc(F)ccc1CS(=O)(=O)Nc1ccc(N2C(=O)CC(=O)Nc3c2ccc2ccccc32)cc1` [Erlitz 64], in series [1], the “NLRP3 inflammasome activation / interleukin-1β release (in words)” value is reported as “able to block NLRP3 inflammasome activation”. The logD7.4 in series [2] is 3.68. In addition, the MLM stability in series [3] was 64%. Turning to `Cc1cc(F)ccc1S(=O)(=O)Nc1ccc(N2C(=O)CC(=O)Nc3c2ccc2ccccc32)cc1` [Erlitz 44], the “NLRP3 inflammasome activation / interleukin-1β release (in words)” value in series [1] is given as “able to block NLRP3 inflammasome activation”. Besides, the logD7.4 in series [2] is 3.59. In series [3], the “stability in mouse microsomes (in words)” value is given as “higher stability in mouse microsomes” and the MLM stability is 93%. Regarding `Cc1cc([18F])ccc1S(=O)(=O)Nc1ccc(N2C(=O)CC(=O)Nc3c2ccc2ccccc32)cc1` [Erlitz [^18F]44], in series [4], the “in vivo metabolism of radioligand (in words)” value is on record as “rapid, in vivo metabolism” and the “blood-brain barrier (BBB) permeation of radioligand (in words)” value is reported as “almost no blood–brain barrier (BBB) permeation”.

Take `O=C1CC(=O)N(c2cccc(-c3noc(=S)[nH]3)c2)c2ccc3ccccc3c2N1` [NP-1815-PX]: the “water solubility (in words)” value is “high potency and water solubility”. With `O=C1CN=C(c2cccc(Br)c2)c2oc3ccccc3c2N1` [5-BDBD], the “water solubility (in words)” value is “low water solubility”.

As to `NS(=O)(=O)c1cc(NC(=O)Cc2ccccc2)ccc1Oc1cccc(Cl)c1` [BAY-1797], the “water solubility (in words)” value is “high water solubility”. Also, the “blood-brain barrier permeation (in words)” value in series [5] is on record as “does not permeate the blood–brain barrier”. Regarding `Cc1cc([18F])ccc1CS(=O)(=O)Nc1ccc(N2C(=O)CC(=O)Nc3c2ccc2ccccc32)cc1` [Erlitz [^18F]64], in series [4], the “in vivo metabolism of radioligand (in words)” value was “rapid, in vivo metabolism” and the “blood-brain barrier (BBB) permeation of radioligand (in words)” value is “almost no blood–brain barrier (BBB) permeation”. As for `CNCC[C@H](Oc1cccc2ccccc12)c1cccs1` [Duloxetine], the “effect on tactile allodynia (in words)” value in series [6] was “reverse tactile allodynia”.

Consider `CC(C)c1cc(Br)c(NC(=O)Nc2cccnc2)c(Br)c1` [BX-430], for which, in series [7] (allosteric antagonist), the “antagonist potency at the hP2X4 receptor (in words)” value is reported as “submicromolar”. With `O=C(OCc1ccccc1)N1c2ccccc2Oc2ccccc21` [PSB-12054], the IC50 in series [7] (representative P2X4 antagonists, Figure 2) is 190 nM.

Regarding `Fc1ccc([C@@H]2CCNC[C@H]2COc2ccc3c(c2)OCO3)cc1` [Paroxetine], the “effect on tactile allodynia (in words)” value in series [6] is “reverse tactile allodynia”.
